# In patent publication US20100093763A1, “PHENYL SUBSTITUTED THIENO[2,3-d]PYRIMIDINES AND THEIR USE AS ADENOSINE A2a RECEPTOR ANTAGONISTS” (priority 2008, published 2010):
# Counter-ions that a name gives are not always drawn.
# Tests used:
# [1] = target: T1, human adenosine A1 receptor (Homo sapiens, UniProt P30542); assay: Adenosine A1 Receptor Functional Assay (A1GAL2); type: cell-based; settings: CHO-K1 cells overexpressing human A1 receptor, cAMP inducible beta-galactosidase reporter, 4 nM r-PIA/1 uM Forskolin agonist challenge
# T1 construct: expressed in transfected cells; host or cells: CHO-K1 cells with cAMP inducible beta-galactosidase reporter gene
# T1 sequence (P30542 1-326): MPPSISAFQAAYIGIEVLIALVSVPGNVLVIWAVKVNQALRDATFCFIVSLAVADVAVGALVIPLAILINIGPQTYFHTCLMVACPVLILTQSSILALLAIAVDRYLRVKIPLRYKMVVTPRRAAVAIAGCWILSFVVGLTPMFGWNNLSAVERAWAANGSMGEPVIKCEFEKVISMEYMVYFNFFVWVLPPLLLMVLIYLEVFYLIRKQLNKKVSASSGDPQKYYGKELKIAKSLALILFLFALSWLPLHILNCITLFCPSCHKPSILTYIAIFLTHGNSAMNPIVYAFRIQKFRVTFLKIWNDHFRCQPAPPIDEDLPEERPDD
# Protocol: Adenosine A1 Receptor Functional Assay (A1GAL2)
# To initiate the functional assay, cryopreserved CHO—K1 cells overexpressing the human adenosine A1 receptor and containing a cAMP inducible beta-galactosidase reporter gene were thawed, centrifuged, DMSO containing media removed, and then seeded with fresh culture media into clear 384-well tissue culture treated plates (BD #353961) at a concentration of 10K cells/well. Prior to assay, these plates were cultured for two days at 37° C., 5% CO2, 90% Rh. On the day of the functional assay, culture media was removed and replaced with 45 uL assay medium (Hams/F-12 Modified (Mediatech #10-080CV) supplemented w/0.1% BSA). Test compounds were diluted and 11 point curves created at a 1000× concentration in 100% DMSO. Immediately after addition of assay media to the cell plates, 50 nL of the appropriate test compound antagonist or agonist control curves were added to cell plates using a Cartesian Hummingbird. Compound curves were allowed to incubate at room temperature on cell plates for approximately 15 minutes before addition of a 4 nM r-PIA (Sigma P4532)/1 uM Forskolin (Sigma F3917) agonist challenge (5 uL volume). A control curve of r-PIA in 1 uM Forskolin, a DMSO/Media control, and a single dose of Forskolin were also included on each plate. After additions, cell plates were allowed to incubate at 37° C., 5% CO2, 90% Rh for 5.5-6 hours. After incubation, media was removed, and cell plates were washed lx 5OuL with DPBS w/o Ca & Mg (Mediatech 21-031-CV).
# Into dry wells, 20 uL of 1× Reporter Lysis Buffer (Promega E3971 (diluted in dH2O from 5× stock)) was added to each well and plates frozen at −20° C. overnight. For β-galactosidase enzyme calorimetric assay, plates were thawed out at room temperature and 20 μL 2× assay buffer (Promega) was added to each well. Color was allowed to develop at 37° C., 5% CO2, 90% Rh for 1-1.5 h or until reasonable signal appeared. The calorimetric reaction was stopped with the addition of 60 μL/well 1M sodium carbonate. Plates were counted at 405 nm on a SpectraMax Microplate Reader (Molecular Devices). Data was analyzed in Microsoft Excel and IC/EC50 curves were fit using a standardized macro.
# [2] = target: T2, human adenosine A2a receptor (Homo sapiens, UniProt P29274); assay: Adenosine A2a Receptor Functional Assay (A2AGAL2); type: cell-based; settings: CHO-K1 cells overexpressing human A2a receptor, cAMP inducible beta-galactosidase reporter, 15 nM NECA agonist challenge
# T2 construct: expressed in transfected cells; host or cells: CHO-K1 cells with cAMP inducible beta-galactosidase reporter gene
# T2 sequence (P29274 whole entry): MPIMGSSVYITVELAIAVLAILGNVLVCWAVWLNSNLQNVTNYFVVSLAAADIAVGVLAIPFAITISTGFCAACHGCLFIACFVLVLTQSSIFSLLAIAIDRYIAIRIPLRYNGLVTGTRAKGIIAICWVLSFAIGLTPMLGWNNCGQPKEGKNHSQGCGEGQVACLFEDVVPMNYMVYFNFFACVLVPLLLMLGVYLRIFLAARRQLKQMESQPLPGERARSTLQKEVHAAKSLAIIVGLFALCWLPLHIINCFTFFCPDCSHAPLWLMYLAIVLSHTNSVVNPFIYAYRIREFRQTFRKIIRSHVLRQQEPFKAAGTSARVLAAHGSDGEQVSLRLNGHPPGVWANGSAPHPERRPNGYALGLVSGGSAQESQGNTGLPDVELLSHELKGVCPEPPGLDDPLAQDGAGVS
# Protocol: Adenosine A2a Receptor Functional Assay (A2AGAL2)
# To initiate the functional assay, cryopreserved CHO—K1 cells overexpressing the human adenosine A2a receptor and containing a cAMP inducible beta-galactosidase reporter gene were thawed, centrifuged, DMSO containing media removed, and then seeded with fresh culture media into clear 384-well tissue culture treated plates (BD #353961) at a concentration of 10K cells/well. Prior to assay, these plates were cultured for two days at 37° C., 5% CO2, 90% Rh. On the day of the functional assay, culture media was removed and replaced with 45 uL assay medium (Hams/F-12 Modified (Mediatech #10-080CV) supplemented w/0.1% BSA). Test compounds were diluted and 11 point curves created at a 1000× concentration in 100% DMSO. Immediately after addition of assay media to the cell plates, 50 nL of the appropriate test compound antagonist or agonist control curves were added to cell plates using a Cartesian Hummingbird. Compound curves were allowed to incubate at room temperature on cell plates for approximately 15 minutes before addition of a 15 nM NECA (Sigma E2387) agonist challenge (5 uL volume). A control curve of NECA, a DMSO/Media control, and a single dose of Forskolin (Sigma F3917) were also included on each plate. After additions, cell plates were allowed to incubate at 37° C., 5% CO2, 90% Rh for 5.5-6 hours. After incubation, media was removed, and cell plates were washed 1× 50 uL with DPBS w/o Ca & Mg (Mediatech 21-031-CV). Into dry wells, 20 uL of 1× Reporter Lysis Buffer (Promega E3971 (diluted in dH2O from 5× stock)) was added to each well and plates frozen at −20° C. overnight. For β-galactosidase enzyme calorimetric assay, plates were thawed out at room temperature and 20 μL 2× assay buffer (Promega) was added to each well. Color was allowed to develop at 37° C., 5% CO2, 90% Rh for 1-1.5 h or until reasonable signal appeared. The calorimetric reaction was stopped with the addition of 60 μL/well 1M sodium carbonate. Plates were counted at 405 nm on a SpectraMax Microplate Reader (Molecular Devices). Data was analyzed in Microsoft Excel and IC/EC50 curves were fit using a standardized macro.
# [3] = target: T3, human A2a adenosine receptor (Homo sapiens, UniProt P29274); assay: Ligand Binding Assay for Adenosine A2a Receptor (A2A-B); settings: plasma membrane of HEK293 cells containing human A2a receptor, radioligand [3H]CGS21680
# T3 construct: purchased PerkinElmer RB-HA2a; host or cells: HEK293 cells (plasma membrane preparation)
# T3 sequence (P29274 whole entry): as above
# Protocol: Ligand Binding Assay for Adenosine A2a Receptor
# Ligand binding assay of adenosine A2a receptor was performed using plasma membrane of HEK293 cells containing human A2a adenosine receptor (PerkinElmer, RB-HA2a) and radioligand [^3H]CGS21680 (PerkinElmer, NET1021). Assay was set up in 96-well polypropylene plate in total volume of 200 μL by sequentially adding 20 μL1:20 diluted membrane, 130 μL assay buffer (50 mM Tris•HCl, pH7.4 10 mM MgCl2, 1 mM EDTA) containing [^3H] CGS21680, 50 μL diluted compound (4×) or vehicle control in assay buffer. Nonspecific binding was determined by […] NECA. Reaction was carried out at room temperature for 2 hours before filtering through 96-well GF/C filter plate pre-soaked in 50 mM Tris•HCl, pH7.4 containing 0.3% polyethylenimine. Plates were then washed 5 times with cold 50 mM Tris•HCl, pH7.4, dried and sealed at the bottom. Microscintillation fluid 30 μL was added to each well and the top sealed. Plates were counted on Packard Topcount for [^3H]. Data was analyzed in Microsoft Excel and GraphPad Prism programs. (Varani, K.; Gessi, S.; Dalpiaz, A.; Borea, P. A. British Journal of Pharmacology, 1996, 117, 1693)
SMILES,Ki [1] [µM],Ki [2] [µM],Ki [3] [µM]
"COc1ccccc1-c1nc(N)c2cc(Cc3ccccc3)sc2n1 [Example 11, 6-Benzyl-2-(2-methoxy-phenyl)-thieno[2,3-d]pyrimidin-4-ylamine]",0.374,0.217,–
"Nc1nc(-c2cccc(C(F)(F)F)c2)nc2sc(Cc3ccccc3)cc12 [Example 12, 6-Benzyl-2-(3-trifluoromethyl-phenyl)-thieno[2,3-d]pyrimidin-4-ylamine]",> 1.04,1.02,–
"COc1cccc(-c2nc(N)c3cc(Cc4ccccc4)sc3n2)c1 [Example 13, 6-Benzyl-2-(3-methoxy-phenyl)-thieno[2,3-d]pyrimidin-4-ylamine hydrochloride]",0.266,0.118,–
"Nc1nc(-c2cccc(F)c2)nc2sc(Cc3ccccc3)cc12 [Example 14, 6-Benzyl-2-(3-fluoro-phenyl)-thieno[2,3-d]pyrimidin-4-ylamine]",0.123,0.0422,–
"N#Cc1cccc(-c2nc(N)c3cc(Cc4ccccc4OC(F)(F)F)sc3n2)c1 [Example 15, 3-[4-Amino-6-(2-trifluoromethoxy-benzyl)-thieno[2,3-d]pyrimidin-2-yl]-benzonitrile]",1.01,0.0391,–
"COc1ccccc1C(=O)c1cc2c(N)nc(-c3cccc(OC(F)(F)F)c3)nc2s1 [Example 18, [4-Amino-2-(3-trifluoromethoxy-phenyl)-thieno[2,3-d]pyrimidin-6-yl]-(2-methoxy-phenyl)-methanone]",0.865,0.175,–
"COc1ccccc1Cc1cc2c(N)nc(-c3cccc(F)c3)nc2s1 [Example 19, 2-(3-Fluoro-phenyl)-6-(2-methoxy-benzyl)-thieno[2,3-d]pyrimidin-4-ylamine]",0.418,0.0624,0.0393
"Nc1nc(-c2cccc(F)c2)nc2sc(Cc3cc(F)cc(F)c3)cc12 [Example 20, 6-(3,5-Difluoro-benzyl)-2-(3-fluoro-phenyl)-thieno[2,3-d]pyrimidin-4-ylamine]",0.564,0.188,–
"COc1ccccc1C(=O)c1cc2c(N)nc(-c3cccc(F)c3)nc2s1 [Example 21, [4-Amino-2-(3-fluoro-phenyl)-thieno[2,3-d]pyrimidin-6-yl]-(2-methoxy-phenyl)-methanone]",0.162,0.0801,–

# Other lines, results leading:
Ki [1] [µM],Ki [2] [µM],Ki [3] [µM],SMILES
1.77,0.34,–,"CC(c1ccccc1)c1cc2c(N)nc(-c3cccc(C#N)c3)nc2s1 (racemic) [Example 10, (±)-3-[4-Amino-6-(1-phenyl-ethyl)-thieno[2,3-d]pyrimidin-2-yl]-benzonitrile]"
0.205,0.0106,0.0168,"N#Cc1cccc(-c2nc(N)c3cc(Cc4ccccc4)sc3n2)c1 [Example 1, 3-(4-Amino-6-benzyl-thieno[2,3-d]pyrimidin-2-yl)-benzonitrile]"
4.64,0.802,–,"N#Cc1cccc(-c2nc(N)c3cc(CCc4ccccc4)sc3n2)c1 [Example 2, 3-(4-Amino-6-phenethyl-thieno[2,3-d]pyrimidin-2-yl)-benzonitrile]"
> 1.04,0.0634,–,"C=C(c1ccccc1)c1cc2c(N)nc(-c3cccc(C#N)c3)nc2s1 [Example 5, 3-[4-Amino-6-(1-phenyl-vinyl)-thieno[2,3-d]pyrimidin-2-yl]-benzonitrile]"
> 0.61,0.222,–,"N#Cc1cccc(-c2nc(N)c3cc(C4(c5ccccc5)CC4)sc3n2)c1 [Example 6, 3-[4-Amino-6-(1-phenyl-cyclopropyl)-thieno[2,3-d]pyrimidin-2-yl]-benzonitrile]"
0.129,0.00615,0.0125,"COc1ccccc1Cc1cc2c(N)nc(-c3cccc(C#N)c3)nc2s1 [Example 9, 3-[4-Amino-6-(2-methoxy-benzyl)-thieno[2,3-d]pyrimidin-2-yl]-benzonitrile]"
1.04,0.023,–,"COc1ccccc1C(=O)c1cc2c(N)nc(-c3cccc(C#N)c3)nc2s1 [Example 17, 3-[4-Amino-6-(2-methoxy-benzoyl)-thieno[2,3-d]pyrimidin-2-yl]-benzonitrile]"
